Experimental data as given in ChEMBL document CHEMBL1201862, “PubChem BioAssay data set” (2004).
Active and inactive are the calls of the source.

How the values were obtained:
[1] = molecular target: Luciferin 4-monooxygenase (Photinus pyralis, UniProt P08659); experiment: Counter Screen for Luciferase-based Assay Positives. [Related pubchem assays: 620, 618, 411 ]
[2] = tested on: HT-1080; experiment: HT1080 cell viability loss – fluorescence readout (AID 620); assay type: functional, cell-based; conditions: Homo sapiens
[3] = Luminescent dose response cell-based high throughput screening assay for inhibitors of the Janus kinase 2 mutant JAK2V617F. [Related pubchem assays: 1446 (Primary screen.), 1521 (Confirmation assay.), 1486 (Counter screen.)]; assay type: functional
[4] = tested on: HEK293; experiment: Fluorescence-based counterscreen for potentiators or agonists of NPY-Y2: cell-based high-throughput dose response assay to identify inhibitors of cyclic nucleotide gated ion channel (CNGC) activity. In this assay, the parental HEK293 cell line transfected with a cyclic-nucleotide gated ion channel (CNGC)-based cAMP sensor is used to measure inhibition of isoproterenol-induced CNGC activity by test compound.; assay type: functional; conditions: Homo sapiens;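 further: stimulus is 1 µM isoproterenol at EC100 plus PDE inhibitor Ro 20-1724 at 25 µM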
[5] = molecular target: T1, Neuropeptide Y receptor type 2 (Homo sapiens, UniProt P49146); experiment: Fluorescence-based cell-based high-throughput dose response assay for agonists of NPY-Y2. [Related pubchem assays: 1703 (Screening assay (CNGC inhibitors).), 1359 (Screening assay (NPY-Y2 potentiators or agonists).), 1304 (Screening assay (NPY-Y1 potentiators or agonists).), 1710 (Screening assay (NPY-Y2 agonists).), 1791 (Summary AID.)]; assay type: functional
T1 sequence (P49146 whole entry): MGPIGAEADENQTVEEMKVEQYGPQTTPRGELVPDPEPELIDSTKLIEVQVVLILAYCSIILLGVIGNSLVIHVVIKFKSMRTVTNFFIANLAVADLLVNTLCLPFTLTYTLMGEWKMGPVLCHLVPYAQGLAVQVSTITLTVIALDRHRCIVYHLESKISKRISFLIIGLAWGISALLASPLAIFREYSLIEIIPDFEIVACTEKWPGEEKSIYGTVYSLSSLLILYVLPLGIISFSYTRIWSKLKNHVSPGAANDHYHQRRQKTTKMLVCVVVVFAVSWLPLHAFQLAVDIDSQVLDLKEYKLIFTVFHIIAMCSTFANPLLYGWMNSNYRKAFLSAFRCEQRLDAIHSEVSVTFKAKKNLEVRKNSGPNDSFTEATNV

[6] = molecular target: T2, Neuropeptide Y receptor type 1 (Homo sapiens, UniProt P25929); experiment: Fluorescence-based counterscreen for agonists of NPY-Y2: cell-based high-throughput dose response assay for agonists of NPY-Y1.; assay type: functional
T2 sequence (P25929 whole entry): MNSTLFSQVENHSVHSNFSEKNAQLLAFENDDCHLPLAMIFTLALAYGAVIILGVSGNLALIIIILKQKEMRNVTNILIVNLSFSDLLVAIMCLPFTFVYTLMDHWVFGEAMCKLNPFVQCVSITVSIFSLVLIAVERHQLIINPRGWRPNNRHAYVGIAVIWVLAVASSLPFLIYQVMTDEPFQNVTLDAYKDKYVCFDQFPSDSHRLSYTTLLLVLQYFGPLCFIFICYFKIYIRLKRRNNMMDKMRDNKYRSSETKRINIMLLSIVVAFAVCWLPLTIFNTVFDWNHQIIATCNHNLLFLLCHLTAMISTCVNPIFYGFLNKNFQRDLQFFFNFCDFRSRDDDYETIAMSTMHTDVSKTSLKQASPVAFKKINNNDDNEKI

[7] = molecular target: T3, Replicative DNA helicase DnaB (Mycobacterium tuberculosis, UniProt P9WMR3); experiment: DnaB intein splicing inhibitors, dose response, biochemical, cell-free fluorescence (AID 449749); assay type: functional
T3 sequence (P9WMR3 whole entry): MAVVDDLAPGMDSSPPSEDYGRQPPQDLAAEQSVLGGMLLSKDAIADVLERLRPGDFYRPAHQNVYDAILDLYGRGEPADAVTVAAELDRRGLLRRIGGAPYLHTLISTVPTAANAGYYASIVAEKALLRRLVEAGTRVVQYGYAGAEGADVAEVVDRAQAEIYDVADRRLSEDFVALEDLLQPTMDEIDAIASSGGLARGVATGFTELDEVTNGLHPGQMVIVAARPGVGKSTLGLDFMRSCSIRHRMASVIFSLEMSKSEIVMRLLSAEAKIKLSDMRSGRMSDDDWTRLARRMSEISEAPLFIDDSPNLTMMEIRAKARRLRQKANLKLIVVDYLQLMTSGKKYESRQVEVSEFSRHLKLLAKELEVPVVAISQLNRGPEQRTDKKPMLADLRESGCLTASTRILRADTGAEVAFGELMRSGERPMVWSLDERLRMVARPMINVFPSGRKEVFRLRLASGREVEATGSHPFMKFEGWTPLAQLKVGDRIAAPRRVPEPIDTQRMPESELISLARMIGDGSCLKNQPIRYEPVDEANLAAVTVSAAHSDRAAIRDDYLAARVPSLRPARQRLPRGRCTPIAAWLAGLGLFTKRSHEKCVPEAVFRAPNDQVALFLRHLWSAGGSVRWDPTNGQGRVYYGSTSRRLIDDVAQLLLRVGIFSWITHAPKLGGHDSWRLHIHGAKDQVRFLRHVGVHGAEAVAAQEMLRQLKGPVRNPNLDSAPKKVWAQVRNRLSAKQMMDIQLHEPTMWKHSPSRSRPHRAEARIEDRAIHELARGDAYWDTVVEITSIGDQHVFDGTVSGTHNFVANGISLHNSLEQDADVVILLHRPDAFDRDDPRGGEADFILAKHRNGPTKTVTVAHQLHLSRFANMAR

[8] = molecular target: T4, Protein RecA (Mycobacterium tuberculosis, UniProt P9WHJ3); experiment: Fluorescence Cell-Free Homogeneous Dose Retest to Identify Inhibitors of RecA-Intein Splicing Activity. [Related pubchem assays (depositor defined):AID2097, AID2223, AID489010, AID492950]; assay type: functional
T4 sequence (P9WHJ3 whole entry): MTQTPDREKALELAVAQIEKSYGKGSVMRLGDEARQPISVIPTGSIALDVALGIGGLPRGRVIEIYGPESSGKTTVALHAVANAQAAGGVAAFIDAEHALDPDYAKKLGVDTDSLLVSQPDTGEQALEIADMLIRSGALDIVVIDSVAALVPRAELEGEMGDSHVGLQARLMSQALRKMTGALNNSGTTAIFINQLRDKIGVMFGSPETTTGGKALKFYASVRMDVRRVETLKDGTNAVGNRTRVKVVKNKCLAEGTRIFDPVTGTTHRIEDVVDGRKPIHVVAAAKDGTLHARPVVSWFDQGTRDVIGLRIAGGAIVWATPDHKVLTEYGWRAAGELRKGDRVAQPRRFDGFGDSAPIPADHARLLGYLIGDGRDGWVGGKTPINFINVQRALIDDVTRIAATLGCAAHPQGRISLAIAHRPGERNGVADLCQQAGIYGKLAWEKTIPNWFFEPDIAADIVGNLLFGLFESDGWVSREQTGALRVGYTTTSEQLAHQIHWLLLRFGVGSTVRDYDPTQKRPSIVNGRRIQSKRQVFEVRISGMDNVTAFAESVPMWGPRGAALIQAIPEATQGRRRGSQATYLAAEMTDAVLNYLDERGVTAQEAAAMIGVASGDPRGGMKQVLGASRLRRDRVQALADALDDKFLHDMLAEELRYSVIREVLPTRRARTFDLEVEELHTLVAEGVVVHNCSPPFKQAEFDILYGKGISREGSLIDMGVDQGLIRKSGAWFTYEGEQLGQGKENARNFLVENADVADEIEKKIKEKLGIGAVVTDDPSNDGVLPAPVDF

[9] = A Cell Based Secondary Assay To Explore Cytotoxicity of Compounds that Sensitize Mycobacterium Tuberculosis to Beta-Lactam Antibiotics.; assay type: functional
[10] = molecular target: T5, Polyadenylate-binding protein 1 (Homo sapiens, UniProt P11940); experiment: MLLE binding blockers, Cy5 peptide tracer – biochemical, fluorescence polarization, Cy5-PAM2 peptide, secondary, miRNA deadenylation inhibitor project, dose response (AID 602260); assay type: functional; conditions: read-out: IC50_Mean
T5 sequence (P11940 whole entry, the tested form may be a part): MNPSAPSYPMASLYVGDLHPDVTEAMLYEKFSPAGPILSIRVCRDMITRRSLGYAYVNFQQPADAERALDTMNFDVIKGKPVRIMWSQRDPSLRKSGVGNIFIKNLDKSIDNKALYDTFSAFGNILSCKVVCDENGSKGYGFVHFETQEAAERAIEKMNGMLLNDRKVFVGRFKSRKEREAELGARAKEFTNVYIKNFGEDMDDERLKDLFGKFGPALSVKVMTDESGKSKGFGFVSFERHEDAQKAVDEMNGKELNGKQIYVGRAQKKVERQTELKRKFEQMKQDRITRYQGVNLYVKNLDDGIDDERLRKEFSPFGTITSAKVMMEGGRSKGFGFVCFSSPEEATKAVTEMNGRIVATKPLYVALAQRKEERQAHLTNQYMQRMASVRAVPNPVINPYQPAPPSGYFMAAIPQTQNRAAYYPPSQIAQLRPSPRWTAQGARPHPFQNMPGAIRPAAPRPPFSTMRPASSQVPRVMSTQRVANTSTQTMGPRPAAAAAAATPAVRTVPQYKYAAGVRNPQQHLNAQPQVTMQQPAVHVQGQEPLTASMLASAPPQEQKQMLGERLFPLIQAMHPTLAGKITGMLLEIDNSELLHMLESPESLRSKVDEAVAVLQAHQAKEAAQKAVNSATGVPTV

[11] = molecular target: T5, Polyadenylate-binding protein 1; experiment: MLLE domain peptide-binding blockers, IC50 – biochemical, fluorescence polarization, FITC-PAM2 peptide, dose response (AID 602259); assay type: functional; conditions: read-out: IC50_Mean
[12] = molecular target: Potassium voltage-gated channel subfamily KQT member 2 (Rattus norvegicus, UniProt O88943, W236L); experiment: potentiation of rat KCNQ2 current – cell-based, automated electrophysiology, mechanism study for KCNQ2 potentiator project, dose response (AID 2603); assay type: functional
Potassium voltage-gated channel subfamily KQT member 2, sequence (O88943 whole entry W236L): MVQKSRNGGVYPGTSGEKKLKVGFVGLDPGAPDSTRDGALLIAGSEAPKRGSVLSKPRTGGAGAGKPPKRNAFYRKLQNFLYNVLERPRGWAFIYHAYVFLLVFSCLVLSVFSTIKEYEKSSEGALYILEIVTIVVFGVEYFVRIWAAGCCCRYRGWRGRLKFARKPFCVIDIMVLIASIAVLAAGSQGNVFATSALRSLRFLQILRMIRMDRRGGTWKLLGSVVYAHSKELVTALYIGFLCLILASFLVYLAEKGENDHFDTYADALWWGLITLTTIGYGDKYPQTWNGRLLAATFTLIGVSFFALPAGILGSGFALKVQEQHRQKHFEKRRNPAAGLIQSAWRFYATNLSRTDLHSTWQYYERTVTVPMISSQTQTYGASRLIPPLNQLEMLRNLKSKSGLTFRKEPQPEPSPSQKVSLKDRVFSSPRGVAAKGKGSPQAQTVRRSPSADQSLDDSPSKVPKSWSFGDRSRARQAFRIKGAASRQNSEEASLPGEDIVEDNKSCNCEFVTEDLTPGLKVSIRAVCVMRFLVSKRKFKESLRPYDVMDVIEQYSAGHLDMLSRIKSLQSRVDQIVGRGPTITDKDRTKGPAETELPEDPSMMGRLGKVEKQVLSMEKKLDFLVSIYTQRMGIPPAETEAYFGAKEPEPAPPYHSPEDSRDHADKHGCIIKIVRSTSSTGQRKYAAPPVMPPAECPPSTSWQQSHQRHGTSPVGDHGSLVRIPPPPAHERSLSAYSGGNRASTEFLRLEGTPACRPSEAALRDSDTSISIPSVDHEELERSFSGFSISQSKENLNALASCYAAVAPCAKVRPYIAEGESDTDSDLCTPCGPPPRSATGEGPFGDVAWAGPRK

[13] = molecular target: T6, High affinity choline transporter 1 (Homo sapiens, UniProt Q9GZV3); experiment: human choline transporter blockers, potency – cell-based, 5-point CRC, membrane potential dye, dose response (AID 504840); assay type: functional
T6 sequence (Q9GZV3 whole entry): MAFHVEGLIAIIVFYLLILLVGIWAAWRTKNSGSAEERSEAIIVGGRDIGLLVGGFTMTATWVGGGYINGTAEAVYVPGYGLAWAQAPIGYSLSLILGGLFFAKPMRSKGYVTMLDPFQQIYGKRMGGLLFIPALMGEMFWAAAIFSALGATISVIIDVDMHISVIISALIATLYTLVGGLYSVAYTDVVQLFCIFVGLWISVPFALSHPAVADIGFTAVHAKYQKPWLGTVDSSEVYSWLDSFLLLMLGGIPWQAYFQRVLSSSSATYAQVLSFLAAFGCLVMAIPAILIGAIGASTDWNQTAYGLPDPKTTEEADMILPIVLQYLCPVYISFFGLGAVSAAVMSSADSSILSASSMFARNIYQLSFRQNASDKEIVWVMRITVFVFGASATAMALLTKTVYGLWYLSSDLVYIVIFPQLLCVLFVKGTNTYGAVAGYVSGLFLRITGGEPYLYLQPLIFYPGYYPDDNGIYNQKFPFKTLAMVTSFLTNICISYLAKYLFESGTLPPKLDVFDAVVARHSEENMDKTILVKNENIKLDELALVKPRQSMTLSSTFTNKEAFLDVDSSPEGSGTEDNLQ

[14] = tested on: Vero; experiment: viability of Vero cells under compound – cytotoxicity control for flavivirus capping enzyme inhibitors (AID 588742); assay type: functional; conditions: Chlorocebus sabaeus
[15] = molecular target: T6, High affinity choline transporter 1; experiment: human choline transporter blockers, potency – cell-based, 10-point CRC, membrane potential dye, dose response (AID 588401); assay type: functional;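 further: membrane potential dye fluorescence of choline-evoked depolarization via CHT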
[16] = reduction of Shn3 3'UTR-driven luciferase in osteoblasts – cell-based, Clone20 osteoblasts, firefly luciferase, cherry-picked, dose response (AID 624132); assay type: functional;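 further: firefly luciferase luminescence from reporter carrying the Shn3 3'UTR in osteoblasts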
[17] = non-specific 3'UTR reporter inhibition in Clone20-Shn3RL – cell-based, Renilla luciferase, cherry-picked, counter-screen for Shn3 inhibitor project, dose response (AID 624133); assay type: functional
[18] = molecular target: T7, Aspartyl aminopeptidase (Plasmodium falciparum 3D7, UniProt Q8I2J3)
T7 sequence (Q8I2J3 whole entry): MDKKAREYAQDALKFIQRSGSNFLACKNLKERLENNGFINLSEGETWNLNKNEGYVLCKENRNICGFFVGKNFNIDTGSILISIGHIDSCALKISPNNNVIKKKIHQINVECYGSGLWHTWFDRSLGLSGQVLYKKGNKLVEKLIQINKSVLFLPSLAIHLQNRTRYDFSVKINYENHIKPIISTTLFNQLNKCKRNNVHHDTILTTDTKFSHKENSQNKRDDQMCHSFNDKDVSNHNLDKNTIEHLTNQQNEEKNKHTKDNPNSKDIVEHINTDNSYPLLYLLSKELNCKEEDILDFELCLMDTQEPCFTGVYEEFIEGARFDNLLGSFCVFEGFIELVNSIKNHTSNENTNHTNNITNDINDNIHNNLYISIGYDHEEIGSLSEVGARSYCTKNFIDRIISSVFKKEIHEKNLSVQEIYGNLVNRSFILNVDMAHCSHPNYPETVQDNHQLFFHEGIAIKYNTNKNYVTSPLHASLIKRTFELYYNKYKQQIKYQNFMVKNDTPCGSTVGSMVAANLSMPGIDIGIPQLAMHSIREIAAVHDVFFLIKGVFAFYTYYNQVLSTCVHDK

[19] = molecular target: Procathepsin L (Homo sapiens, UniProt P07711)
Procathepsin L, sequence (P07711 whole entry): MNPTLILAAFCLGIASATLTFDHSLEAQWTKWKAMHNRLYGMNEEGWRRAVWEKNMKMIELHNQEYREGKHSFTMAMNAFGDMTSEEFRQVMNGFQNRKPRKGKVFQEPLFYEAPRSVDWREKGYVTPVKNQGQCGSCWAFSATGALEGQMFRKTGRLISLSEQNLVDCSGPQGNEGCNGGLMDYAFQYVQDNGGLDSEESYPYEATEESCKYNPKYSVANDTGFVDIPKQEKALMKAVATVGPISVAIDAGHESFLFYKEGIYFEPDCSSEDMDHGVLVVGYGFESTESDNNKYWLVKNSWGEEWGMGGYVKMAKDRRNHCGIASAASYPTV

[20] = molecular target: T8, Microphthalmia-associated transcription factor (Homo sapiens, UniProt O75030); experiment: reducers of TRPM1 reporter luminescence, concentration series – cell-based, SK-MEL-5, cherry-picked, set 3, MITF inhibitor project, dose response (AID 493073); assay type: functional;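 further: SK-MEL-5 melanoma cells with luciferase driven by the MITF target TRPM1 promoter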
T8 sequence (O75030 whole entry): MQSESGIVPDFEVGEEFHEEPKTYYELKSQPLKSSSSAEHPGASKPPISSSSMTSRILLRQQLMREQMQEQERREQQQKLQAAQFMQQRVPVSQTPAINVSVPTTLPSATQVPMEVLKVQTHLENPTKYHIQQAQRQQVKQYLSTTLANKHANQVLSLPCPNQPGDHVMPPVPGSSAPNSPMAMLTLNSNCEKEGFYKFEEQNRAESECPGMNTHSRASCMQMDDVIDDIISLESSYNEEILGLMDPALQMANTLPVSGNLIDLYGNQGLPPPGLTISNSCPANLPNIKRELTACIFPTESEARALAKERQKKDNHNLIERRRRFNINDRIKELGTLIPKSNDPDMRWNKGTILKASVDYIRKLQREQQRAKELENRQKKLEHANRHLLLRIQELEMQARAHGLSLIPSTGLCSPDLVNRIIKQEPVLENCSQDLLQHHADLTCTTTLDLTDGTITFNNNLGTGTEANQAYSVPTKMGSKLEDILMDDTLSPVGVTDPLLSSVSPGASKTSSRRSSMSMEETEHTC

Luciferin 4-monooxygenase, sequence (P08659 whole entry): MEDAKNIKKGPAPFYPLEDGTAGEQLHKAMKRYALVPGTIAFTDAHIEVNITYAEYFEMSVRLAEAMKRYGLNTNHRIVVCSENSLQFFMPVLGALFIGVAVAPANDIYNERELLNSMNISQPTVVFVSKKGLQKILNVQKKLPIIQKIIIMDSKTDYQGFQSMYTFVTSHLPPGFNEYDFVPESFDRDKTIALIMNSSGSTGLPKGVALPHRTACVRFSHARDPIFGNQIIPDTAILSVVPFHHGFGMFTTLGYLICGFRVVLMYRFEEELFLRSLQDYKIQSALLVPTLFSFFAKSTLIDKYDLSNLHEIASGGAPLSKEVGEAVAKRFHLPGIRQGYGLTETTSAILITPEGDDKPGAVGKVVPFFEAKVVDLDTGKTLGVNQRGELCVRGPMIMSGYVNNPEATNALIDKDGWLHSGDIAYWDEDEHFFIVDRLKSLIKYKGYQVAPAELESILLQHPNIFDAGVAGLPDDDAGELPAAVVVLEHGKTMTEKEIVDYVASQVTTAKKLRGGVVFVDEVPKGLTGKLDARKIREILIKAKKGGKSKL

Cc1ccc(NC(=O)c2ccc3c(c2)OCCO3)cc1
EC50 [1]: 0.81 µM (active)
EC50 [2]: > 50 µM (not active)

O=C(CCl)NC(=O)NC12CC3CC(CC(C3)C1)C2
IC50 [3]: 0.87 µM (active)
EC50 [4]: > 35.4 µM (not active)
EC50 [5]: > 35.4 µM (not active)
EC50 [6]: > 35.4 µM (not active)
AC50 [7]: 12 µM (active)
EC50 [8]: 5.47 µM (active)

CCC(=O)N1CCN(c2ccc(NC(=S)NC(=O)c3ccc(OC)c([N+](=O)[O-])c3)cc2)CC1
CC50 [9]: > 40 µM (active)
IC50 [10]: > 66 µM (inactive)
IC50 [11]: > 66 µM (inactive)

Cc1ccc(CS(=O)(=O)c2ncc(Cl)c(C(=O)Nc3nnc(C)s3)n2)cc1
EC50 [12]: 5.4 µM (active)
AC50 [7]: 14.2 µM (active)
IC50 [13]: 4.05 µM (active)
CC50 [14]: 17.4 µM (active)
EC50 [8]: 16 µM (active)
IC50 [15]: 3.98 µM (active)
AC50 [16]: 0.639 µM (active)
AC50 [17]: 6.75 µM (active)

CCOC(=O)NC(=O)COC(=O)c1ccc(Sc2nnc[nH]2)c([N+](=O)[O-])c1
IC50 [18]: 0.609 µM (active)
IC50 [19]: > 59.6 µM (not active)

COc1ccc(/C(O)=C\C=N\c2ccccn2)cc1
EC50 [1]: 73.2 µM (active)
EC50 [2]: > 50 µM (not active)
AC50 [20]: 3.72 µM (active)

N#C/C(=C(/O)COC(=O)CCc1ccc(S(=O)(=O)N2CCOCC2)cc1)c1nc2ccccc2[nH]1
CC50 [9]: > 40 µM (active)
